Source: patent US12089595B2, “Pseudomonas strains and their metabolites to control plant diseases” (T3 Bioscience, Inc., priority 2020, dated 2024)
Values after ≈ are worked out from the molar mass of the structure shown.

Tested on: Phytophthora infestans Pi 88069
Assay: microbe, parasite or virus in culture
Type: cell-based

CSC1=C(C)C(=O)C(=O)NC1=O [RejuAgro A]
MIC: 40 µg/mL (≈ 216 µM)
